Results as given in paper PMC9995496, “A screen for MeCP2-TBL1 interaction inhibitors using a luminescence-based assay” (Scientific Reports, 2023).

Target: T1, MeCP2-TBL1 interaction (MeCP2-SmBiT / TBL1-LgBiT) (Mus musculus, UniProt Q9QXE7)
T1 construct: expressed in transfected cells; crude lysate used as a cell-free assay
T1 sequence (Q9QXE7 166-527): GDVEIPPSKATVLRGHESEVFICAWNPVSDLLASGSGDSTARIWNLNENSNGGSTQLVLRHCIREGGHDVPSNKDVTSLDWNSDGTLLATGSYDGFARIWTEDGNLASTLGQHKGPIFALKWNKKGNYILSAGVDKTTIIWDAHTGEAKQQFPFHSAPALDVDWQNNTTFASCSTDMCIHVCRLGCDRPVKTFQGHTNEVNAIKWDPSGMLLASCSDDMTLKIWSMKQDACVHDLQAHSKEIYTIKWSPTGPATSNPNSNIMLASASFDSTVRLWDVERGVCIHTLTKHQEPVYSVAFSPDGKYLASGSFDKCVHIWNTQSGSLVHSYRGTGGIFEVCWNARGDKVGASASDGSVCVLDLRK
Assay: MeCP2-TBL1 NanoLuc luciferase complementation assay (cell-free, extracts of transfected HEK293 cells)
Type: binding, human
Text: To facilitate the discovery of inhibitors of the interaction between MeCP2 and TBL1/TBLR1, we set out to devise a simple and scalable biochemical assay for measuring the interaction between these two proteins. We initially explored the possibility of screening compound libraries using a previously established fluorescence polarization assay that depends on purified recombinant TBL1/TBLR1[26]. […] The resulting luminescence signal depends on the affinity between the two interacting proteins of interest (Fig. 1A). This method was originally developed to allow for the interrogation of protein–protein interactions in vivo. However, in order to facilitate large scale screening of chemical libraries, we adapted the assay for use as a cell-free system.
We fused the large N-terminal fragment of NanoLuc (LgBiT) to the C-terminus of the WD repeat domains of both TBL1 and TBLR1, and the small C-terminal fragment of NanoLuc (SmBiT) to the C-terminus of the C-terminal half of MeCP2 (Fig. 1B and C). This region of MeCP2 contains the NID (NCoR interaction domain)—the motif in MeCP2 that binds to TBL1/TBLR1.
The AgeI-NotI restriction fragment (encoding EGFP) was then replaced with a codon optimized SmBiT sequence to yield the MeCP2-SmBiT expression plasmid. The TBL1-LgBiT expression vector was derived from a TBL1-mCherry plasmid[25] by replacing the AgeI-NotI restriction fragment (encoding mCherry) with a codon optimized LgBiT sequence. SmBiT-PRKACA and LgBiT-PRKAR2A plasmids are commercially available (Promega, N203 and N204).
Cells were harvested after 24 h and cell pellets were stored at − 80 °C.
In the screens described here, the lysate obtained from a single 15 cm plate was used for 2.5 384-well assay plates. NanoLuc substrate (furimazine) (Promega, N1110) was diluted 1000-fold in passive lysis buffer (Promega, E1941) and added 1:1 to the lysate. Screening libraries were purchased from Asinex[40] and ApexBio (FDA-approved Drug Library, L1021). Compounds were dispensed using an Echo acoustic dispenser and tested at a final concentration of 20 µM in a total assay volume of 20 μl in 384-well plate format. DMSO was added to each well at a final concentration of 0.2% (v/v) and wells containing only DMSO were used as negative control. After 30 min incubation at room temperature, luminescence was measured on a Tecan M1000 multi-mode plate reader. Raw luminescence reads from each well on each plate were normalized to the median luminescence signal for that plate. In the ApexBio screen, the scaled and normalized PKA signal for each compound was subtracted from the MeCP2-TBL1 signal for the same compound. After plate normalization the robust SSMD (SSMD*) was calculated as described elsewhere. A threshold of SSMD* ≥ 3 was applied for discerning primary hits.
Assays were performed as described above except instead of a single concentration, a threefold serial dilution ranging from 60 to 0.03 μM was tested in triplicate for each of the compounds. Half-maximal inhibitory concentrations were calculated using global nonlinear regression by fitting the response data sets of all compounds simultaneously with a four-parameter logistic curve of log inhibitor concentration versus normalized luminescence using GraphPad Prism. During fitting, the maximum and minimum curve values were shared between the data sets.

[1] = primary screen of the Asinex library, sheet "Sargen output Asinex library", one well per compound, Batch Ref. 1
[2] = primary screen of the Asinex library, sheet "Sargen output Asinex library", one well per compound
[3] = primary screen of Asinex library, single well per compound

`O=C(c1cccc(-c2cncnc2)n1)N1CCCCC1c1ncc(Cc2cccc(F)c2)o1` (stereo not shown) [BDE_33514471] gave an Inhibition percent [1] of -1.40%.

`COc1ccccc1CC(=O)N1CCCCC1c1ncc(Cc2ccccc2OC)o1` (stereo not shown) [BDE_33514655] gave an Inhibition percent [2] of 5.46%.

For `COc1cccc(Cc2cnc(C3CCCCN3C(=O)Cc3ccccc3OC)o2)c1` (stereo not shown) [BDE_33514656], the Inhibition percent [2] was 2.98%.

For `COc1cccc(Cc2cnc(C3CCCCN3C(=O)c3cccnc3-c3cncs3)o2)c1` (stereo not shown) [BDE_33514740], the Inhibition percent [1] was 1.71%.

`CNc1nc(C2CCCCN2C(=O)CCCN(C)c2ccccc2)nc2c1CCN(C(C)=O)C2` (stereo not shown) [BDE_33628015] was tested, and the Inhibition percent [1] was -2.14%.

With `COCc1nc2ccccc2n1CC(=O)N1CCCCC1C1CCN(C(=O)c2cnc(C)cn2)CC1` (stereo not shown) [BDE_33628056] the Inhibition percent [2] was -2.31%.

`Cn1c(COCC(=O)N2CCCCC2c2cc(C(=O)NC3CCCC3)[nH]n2)nc2ccccc21` (stereo not shown) [BDE_33628409] was tested, and the Inhibition percent [2] was -3.22%.

`Cc1ccc2ncnc(NCCC(=O)N3CCCCC3c3cc(C(=O)NC4CCCC4)[nH]n3)c2c1` (stereo not shown) [BDE_33629308] showed an Inhibition percent [2] of 0.99%.

In the case of `Cc1cc(Oc2ccc(C(N)=O)cc2)nc(C2CCCCN2C(=O)CCCN2CCCCCC2)n1` (stereo not shown) [BDE_33629625], the Inhibition percent [2] is reported as -1.16%.

`O=C(CN1CCC(C2CCCCN2C(=O)C2CCN(Cc3ccccn3)CC2)CC1)N1CCCC1` (stereo not shown) [BDE_33629903] gave an Inhibition percent [1] of -3.25%.

Work on `O=C(NC1CCCC1)c1cc(C2CCCCN2C(=O)C2CCN(Cc3ccncc3)CC2)n[nH]1` (stereo not shown) [BDE_33629993] yielded an Inhibition percent [2] of -2.91%.

For `O=C(c1ccc(CN2CCOCC2)cc1)N1CCCC1c1ccnc(-c2cccc(Cl)c2)n1` (stereo not shown) [BDE_33630026], the Inhibition percent [1] was 0.26%.

`Cc1ccc2nc(COCC(=O)N3CCCC3c3ccnc(-c4cccc(Cl)c4)n3)[nH]c2c1` (stereo not shown) [BDE_33630067] was tested, and the Inhibition percent [2] was 1.05%.

In the case of `CC(C)(C)c1ccc2c(c1)N(CC(=O)N1CCCCC1CCNC(=O)c1ccccc1)C(=O)CO2` (stereo not shown) [BDE_33630290], the Inhibition percent [3] is reported as -2.18.

For `O=C(CCCC(=O)N1CCCCC1c1n[nH]cc1-c1ccc(C(F)(F)F)cc1)Nc1ccccn1` (stereo not shown) [BDE_33631892], the Inhibition percent [1] was 4.13%.

For `CN(C)c1ncc(-c2cccc(C(N)=O)c2)c(C2CCCCN2CC(=O)NCc2ccccn2)n1` (stereo not shown) [BDE_33632669], the Inhibition percent [3] was -2.55.

`CCCN1CCN(C(=O)c2c[nH]cn2)CC(Cc2ccccc2-c2ccccc2OC)C1=O` (stereo not shown) [BDE_33754981] gave an Inhibition percent [1] of 0.35%.

Work on `O=C(OCc1ccccc1)N1C[C@@H](O)[C@H](N(Cc2ccccc2)Cc2ccc(F)c(F)c2)C1` [BDE_33958860] yielded an Inhibition percent [3] of 12.36.

For `COc1ccccc1-c1ccc(CN2C[C@@H](c3ccccc3F)[C@@]3(CCCC(=O)N3)C2)cc1` [BDF_20367643], the Inhibition percent [1] was 18.11%.

In the case of `COc1ccc(S[C@@H]2CCO[C@@H](CCNC(=O)c3cc(OC)nc(OC)n3)C2)cc1` [BDF_22929100], the Inhibition percent [2] is reported as -1.50%.

For `CC(=O)N1CCC(Cc2cc(-c3ccccc3)no2)(C(=O)N2CCC(C(C)(C)C)CC2)C1` (stereo not shown) [BDF_23076577], the Inhibition percent [1] was 2.56%.

With `CC(=O)N1CCC(Cc2cc(-c3ccccc3)no2)(C(=O)Nc2ccccc2OC(C)C)C1` (stereo not shown) [BDF_23076638] the Inhibition percent [1] was 1.76%.

`Cn1nc(C(F)(F)F)cc1C(=O)NCC[C@@H]1C[C@@H](S(=O)(=O)c2ccccc2)CCO1` [BDF_23100510] gave an Inhibition percent [3] of 0.85.

Work on `CC(=O)N[C@@H]1CCO[C@H](c2ccc(NC(=O)C(c3ccccc3)c3ccccc3)cc2)C1` [BDF_23111075] yielded an Inhibition percent [1] of 0.91%.

In the case of `CCc1nnsc1C(=O)N(CC)[C@H]1CCO[C@@H](c2cccc(-c3cncnc3)c2)C1` [BDF_23117916], the Inhibition percent [2] is reported as -3.67%.

For `COCCNC(=O)c1sc2ncccc2c1C1CCN(Cc2ccc3ncccc3c2)C1` (stereo not shown) [BDF_24020930], the Inhibition percent [1] was -0.43%.

Molecule `CCN(CC)C(=O)CN1CCOC(c2c(C(=O)N3CCOCC3)sc3ncccc23)C1` (stereo not shown) [BDF_24025276] has an Inhibition percent [1] of -4.29%.

For `CCN(Cc1cnn(-c2ccc(C)cc2)c1)[C@@H]1CCO[C@H](c2ccc(C(=O)N(C)C)cc2)C1` [BDF_24511039], the Inhibition percent [2] was -0.31%.

`Cc1ccccc1OCCC(=O)N1CCC(c2nc(N(C)C)ncc2-c2cccc(F)c2)C1` (stereo not shown) [BDF_24539058] was tested, and the Inhibition percent [2] was 9.04%.

Work on `Cc1cc(CCCC(=O)N2CCC(c3nc(N(C)C)ncc3-c3cncnc3)C2)ccc1F` (stereo not shown) [BDF_24540183] yielded an Inhibition percent [1] of 0.11%.

`NC(=O)C1(Cc2cc(C3CCCCC3)no2)CCN(C(=O)CN2CCCCCC2=O)C1` (stereo not shown) [BDF_24693170] was tested, and the Inhibition percent [1] was -2.18%.

Work on `Cc1nc(C2CCN(C(=O)C3CCCCC3)C2)nc2c1CC(=O)N2CCCc1ccccc1` (stereo not shown) [BDF_25113060] yielded an Inhibition percent [3] of -1.14.

`Cc1nnc(Nc2cccc(C3CN(C(=O)Cn4c(C)cc5ccccc54)CCO3)n2)s1` (stereo not shown) [BDF_25244494] showed an Inhibition percent [1] of -1.26%.

`Cc1cc(Nc2cccc(C3CN(C(=O)Cc4ccc5c(c4)CCCO5)CCO3)n2)nn1C` (stereo not shown) [BDF_25246163] showed an Inhibition percent [1] of -0.41%.

Molecule `Cc1ccccc1Cc1cccc(C2CN(C(=O)c3nccc4ccccc34)CCO2)n1` (stereo not shown) [BDF_25249064] has an Inhibition percent [1] of 6.97%.

`O=C(CCc1[nH]nc2c1CCCC2)N1CCOC(c2cccc(Cc3ccc(F)cc3)n2)C1` (stereo not shown) [BDF_25251125] showed an Inhibition percent [1] of -1.98%.

`Cc1cc(C)nc(NCCC(=O)N2CCOC(c3cccc(Cc4ccccc4C)n3)C2)n1` (stereo not shown) [BDF_25252602] was tested, and the Inhibition percent [2] was -1.37%.

`NC(=O)c1cccc(-c2cccc(C3CN(C(=O)CCc4cccc(Cl)c4)CCO3)n2)c1` (stereo not shown) [BDF_25272769] gave an Inhibition percent [1] of 7.95%.

For `CNC(=O)c1ccc(-c2cccc(C3CN(CC(=O)NCc4ccccn4)CCO3)n2)cn1` (stereo not shown) [BDF_25324043], the Inhibition percent [2] was 1.99%.

`Cc1ccc(=O)n(CC(=O)N2CCOC3(CC=CCN(CCc4ccccc4)C3=O)C2)n1` (stereo not shown) [BDF_25862113] showed an Inhibition percent [3] of 3.93.

Molecule `O=C(CC1CCCCC1)N1CCOC(c2nccnc2-c2cccc(C(F)(F)F)c2)C1` (stereo not shown) [BDF_25939482] has an Inhibition percent [1] of 0.68%.

`Cc1cc(-c2ccc(N)nc2)cc(C2CN(C(=O)CCc3cccc(Cl)c3)CCO2)n1` (stereo not shown) [BDF_26216758] gave an Inhibition percent [1] of 8.38%.

`Cc1cc(Cc2cccc(F)c2)cc(C2CN(C(=O)Cc3ccc(F)cc3)CCO2)n1` (stereo not shown) [BDF_26219393] showed an Inhibition percent [1] of -0.80%.

In the case of `Cc1cc(Cc2ccccc2F)cc(C2CN(C(=O)Cn3cnc4ccccc43)CCO2)n1` (stereo not shown) [BDF_26219772], the Inhibition percent [1] is reported as 3.08%.

`Cc1nc(C2(O)CCCN(Cc3ccncc3)CC2)sc1CCOc1ccccc1` (stereo not shown) [BDF_26909339] showed an Inhibition percent [1] of -3.76%.

Molecule `FC(F)(F)c1ccccc1Cc1cccc(C2CN(Cc3cccnc3)CCO2)n1` (stereo not shown) [BDF_27574784] has an Inhibition percent [1] of 32.27%.

In the case of `CC(=O)Nc1ccc(C(=O)N2CCOC(c3cccc(Cc4ccccc4Cl)n3)C2)cc1` (stereo not shown) [BDF_27578760], the Inhibition percent [1] is reported as 0.59%.

With `CC(=O)Nc1cccc([C@@H]2CN(CCc3ccc(F)cc3)C[C@]23CCCCC(=O)N3)c1` [BDF_30280717] the Inhibition percent [1] was -0.37%.

In the case of `CC(=O)N[C@@]12CCN(S(=O)(=O)Cc3cccc(Cl)c3)C[C@@H]1[C@@H](c1ccccc1)N(C(C)=O)C2` [BDF_30361318], the Inhibition percent [3] is reported as -5.79.

With `Cc1cccc(CN(CCc2c[nH]c3ccccc23)[C@@H]2CC[C@@H](NCc3ccccc3)[C@H]2O)c1` [BDF_33953574] the Inhibition percent [2] was 3.88%.

For `COCCOc1cccc(CN2[C@H](Cc3ccccc3F)C[C@@H]3NC(=O)CCCC[C@H]32)c1` [BDG_23917768], the Inhibition percent [3] was -0.22.

`COc1ccccc1-c1ccc(CN2[C@@H](c3ccccc3)C[C@@H]3NC(=O)CCC[C@H]32)cc1` [BDG_23930473] showed an Inhibition percent [1] of 6.28%.
